Test results: PubChem BioAssay (NCI)
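Test compounds were applied to cells in 96-well plates for 48 hours at 5 doses. The concentration for 50% growth inhibition is given as GI50. TGI is the concentration that stops growth completely.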

Legend:
Assay in all cases: NCI tumour cell line growth inhibition, 48 h
[1] = tested on: OVCAR-4 ovarian
[2] = tested on: MCF7 breast
[3] = tested on: OVCAR-8 ovarian
[4] = tested on: SK-MEL-28 melanoma
[5] = tested on: SNB-75 CNS
[6] = tested on: ACHN renal
[7] = tested on: UACC-62 melanoma
[8] = tested on: HCT-15 colon
[9] = tested on: PC-3 prostate
[10] = tested on: SR leukemia
[11] = tested on: LOX IMVI melanoma
[12] = tested on: NCI-H23 lung
[13] = tested on: COLO 205 colon
[14] = tested on: MALME-3M melanoma
[15] = tested on: U251 CNS
[16] = tested on: SN12C renal
[17] = tested on: SF-268 CNS
[18] = tested on: BT-549 breast
[19] = tested on: EKVX NSCLC
[20] = tested on: DU-145 prostate
[21] = tested on: SK-OV-3 ovarian
[22] = tested on: NCI-H226 lung
[23] = tested on: NCI-H522 lung
[24] = tested on: HT29 colon
[25] = tested on: SK-MEL-5 melanoma
[26] = tested on: M14 melanoma
[27] = tested on: NCI/ADR-RES ovarian
[28] = tested on: T-47D breast
[29] = tested on: K-562 leukemia
[30] = tested on: HCT-116 colon
[31] = tested on: SF-295 CNS
[32] = tested on: MDA-MB-435
[33] = tested on: HOP-92 NSCLC
[34] = tested on: MOLT-4 leukemia
[35] = tested on: CCRF-CEM leukemia
[36] = tested on: KM12 colon
[37] = tested on: SK-MEL-2 melanoma
[38] = tested on: RPMI-8226 leukemia
[39] = tested on: HCC-2998 colon
[40] = tested on: UO-31 renal
[41] = tested on: HS 578T breast
[42] = tested on: SF-539 CNS
[43] = tested on: 786-0 renal
[44] = tested on: UACC-257 melanoma
[45] = tested on: IGROV1 ovarian
[46] = tested on: OVCAR-3 ovarian
[47] = tested on: NCI-H460 lung
[48] = tested on: HL-60(TB) leukemia
[49] = tested on: RXF 393 renal
[50] = tested on: TK-10 renal
[51] = tested on: A549 NSCLC
[52] = tested on: CAKI-1 renal
[53] = tested on: OVCAR-5 ovarian
[54] = tested on: A498 renal
[55] = tested on: SNB-19 CNS
[56] = tested on: MDA-MB-231 breast
[57] = tested on: HOP-62 NSCLC
[58] = tested on: SW-620 colon

Structure (SMILES): O=C1CCCC/C1=C(\Br)I
- TGI [1]: 29.3 µM
- TGI [2]: 32.9 µM
- TGI [3]: 28.1 µM
- TGI [4]: 29.9 µM
- TGI [5]: 34.8 µM
- TGI [6]: 29.6 µM
- TGI [7]: 38.3 µM
- TGI [8]: 7.97 µM
- TGI [9]: 32.9 µM
- TGI [10]: 9.49 µM
- TGI [11]: 32.4 µM
- TGI [12]: 16.8 µM
- TGI [13]: 28.8 µM
- TGI [14]: 12.1 µM
- TGI [15]: 34 µM
- TGI [16]: 30.8 µM
- TGI [17]: 14.8 µM
- TGI [18]: 31.6 µM
- TGI [19]: 34.4 µM
- TGI [20]: 26 µM
- TGI [21]: 49.2 µM
- TGI [22]: 43.7 µM
- TGI [23]: 3.48 µM
- TGI [24]: 27.4 µM
- TGI [25]: 42.1 µM
- TGI [26]: 20.1 µM
- TGI [27]: 41.1 µM
- TGI [28]: 15.2 µM
- TGI [29]: 10.3 µM
- TGI [30]: 25 µM
- TGI [31]: 37.7 µM
- TGI [32]: 29.4 µM
- TGI [33]: 31.8 µM
- TGI [34]: 7.17 µM
- TGI [35]: 5.68 µM
- TGI [36]: 34 µM
- TGI [37]: 38.6 µM
- TGI [38]: 16.5 µM
- TGI [39]: 9.79 µM
- TGI [40]: 31.5 µM
- TGI [41]: > 100 µM
- TGI [42]: 41.2 µM
- TGI [43]: 37.5 µM
- TGI [44]: 30.5 µM
- TGI [45]: 40.8 µM
- TGI [46]: 32.1 µM
- TGI [47]: 33 µM
- TGI [48]: 5.71 µM
- TGI [49]: 29.5 µM
- TGI [50]: 18.4 µM
- TGI [51]: 58.6 µM
- TGI [52]: 24.9 µM
- TGI [53]: 33.2 µM
- TGI [54]: 35.7 µM
- TGI [55]: 47.5 µM
- TGI [56]: 32.5 µM
- TGI [57]: 36.7 µM
- TGI [58]: 10.4 µM

Structure (SMILES): COC(=O)c1c(C)c2n(c1C)C(=O)C(c1ccccc1)=C2
- GI50 [1]: 50.4 µM
- TGI [1]: > 100 µM
- GI50 [2]: 5.32 µM
- TGI [2]: > 100 µM
- GI50 [3]: > 90.9 µM
- TGI [3]: > 100 µM
- GI50 [4]: > 87.8 µM
- TGI [4]: > 100 µM
- GI50 [5]: 30.1 µM
- TGI [5]: > 100 µM
- GI50 [6]: > 87.6 µM
- TGI [6]: > 100 µM
- GI50 [7]: 28.1 µM
- TGI [7]: > 100 µM
- GI50 [8]: 28.9 µM
- TGI [8]: > 100 µM
- GI50 [9]: > 80.6 µM
- TGI [9]: > 100 µM
- GI50 [10]: > 50.1 µM
- TGI [10]: > 100 µM
- GI50 [11]: 58.8 µM
- TGI [11]: > 100 µM
- GI50 [12]: > 58.3 µM
- TGI [12]: > 100 µM
- GI50 [13]: > 93 µM
- TGI [13]: > 100 µM
- GI50 [14]: > 100 µM
- TGI [14]: > 100 µM
- GI50 [15]: 82.8 µM
- TGI [15]: > 100 µM
- GI50 [16]: > 100 µM
- TGI [16]: > 100 µM
- GI50 [17]: > 100 µM
- TGI [17]: > 100 µM
- GI50 [18]: 61.6 µM
- TGI [18]: > 100 µM
- GI50 [19]: 5.91 µM
- TGI [19]: > 100 µM
- GI50 [20]: > 100 µM
- TGI [20]: > 100 µM
- GI50 [21]: > 73.9 µM
- TGI [21]: > 100 µM
- GI50 [22]: > 100 µM
- TGI [22]: > 100 µM
- GI50 [23]: 58.2 µM
- TGI [23]: > 100 µM
- GI50 [24]: 41.1 µM
- TGI [24]: > 100 µM
- GI50 [25]: 26.9 µM
- TGI [25]: > 100 µM
- GI50 [26]: > 71 µM
- TGI [26]: > 100 µM
- GI50 [27]: 53.2 µM
- TGI [27]: > 100 µM
- GI50 [28]: 9.38 µM
- TGI [28]: > 100 µM
- GI50 [29]: 45.3 µM
- TGI [29]: > 100 µM
- GI50 [30]: 42.5 µM
- TGI [30]: > 100 µM
- GI50 [31]: > 61.9 µM
- TGI [31]: > 100 µM
- GI50 [32]: 25.1 µM
- TGI [32]: > 100 µM
- GI50 [33]: > 47.1 µM
- TGI [33]: > 100 µM
- GI50 [34]: 30.8 µM
- TGI [34]: > 100 µM
- GI50 [35]: 51.8 µM
- TGI [35]: > 100 µM
- GI50 [36]: 49.7 µM
- TGI [36]: > 100 µM
- GI50 [37]: > 100 µM
- TGI [37]: > 100 µM
- GI50 [38]: 25.9 µM
- TGI [38]: > 100 µM
- GI50 [39]: > 57.8 µM
- TGI [39]: > 100 µM
- GI50 [40]: 31.7 µM
- TGI [40]: > 100 µM
- GI50 [41]: 8.13 µM
- TGI [41]: > 100 µM
- GI50 [42]: > 88.8 µM
- TGI [42]: > 100 µM
- GI50 [43]: 88.1 µM
- TGI [43]: > 100 µM
- GI50 [44]: > 100 µM
- TGI [44]: > 100 µM
- GI50 [45]: 34.4 µM
- TGI [45]: > 100 µM
- GI50 [46]: 45.4 µM
- TGI [46]: > 100 µM
- GI50 [47]: 58.2 µM
- TGI [47]: > 100 µM
- GI50 [48]: 53.8 µM
- TGI [48]: > 100 µM
- GI50 [49]: 55 µM
- TGI [49]: > 100 µM
- GI50 [50]: 48.2 µM
- TGI [50]: > 100 µM
- GI50 [51]: > 81.2 µM
- TGI [51]: > 100 µM
- GI50 [52]: > 47.9 µM
- TGI [52]: > 100 µM
- GI50 [53]: > 91.9 µM
- TGI [53]: > 100 µM
- GI50 [54]: > 84.7 µM
- TGI [54]: > 100 µM
- GI50 [55]: > 95.6 µM
- TGI [55]: > 100 µM
- GI50 [56]: 24.3 µM
- TGI [56]: > 100 µM
- GI50 [57]: 67.1 µM
- TGI [57]: > 100 µM
- GI50 [58]: 48.6 µM
- TGI [58]: > 100 µM
